Laboratory results from patent US5411976A, “New thiazolidine derivatives, process for preparing same and anti-amnestic composition containing same” (Kabushiki Kaisha Yakult Nonsha, priority 1987, dated 1995).
Non-standard residues stand in square brackets, D forms with d. Residues, ends and D or L forms follow the SMILES beside them. *: point of attachment. Thz = O=C(O)[C@@H]1CSCN1; Cbz = O=C(OCc1ccccc1)*

Columns and labels:
prolyl endopeptidase = biological target: T1, prolyl endopeptidase (Homo sapiens, UniProt P48147); experiment: Inhibitory activity to prolyl endopeptidase (IC50); format: biochemical
T1 sequence (P48147 1-710): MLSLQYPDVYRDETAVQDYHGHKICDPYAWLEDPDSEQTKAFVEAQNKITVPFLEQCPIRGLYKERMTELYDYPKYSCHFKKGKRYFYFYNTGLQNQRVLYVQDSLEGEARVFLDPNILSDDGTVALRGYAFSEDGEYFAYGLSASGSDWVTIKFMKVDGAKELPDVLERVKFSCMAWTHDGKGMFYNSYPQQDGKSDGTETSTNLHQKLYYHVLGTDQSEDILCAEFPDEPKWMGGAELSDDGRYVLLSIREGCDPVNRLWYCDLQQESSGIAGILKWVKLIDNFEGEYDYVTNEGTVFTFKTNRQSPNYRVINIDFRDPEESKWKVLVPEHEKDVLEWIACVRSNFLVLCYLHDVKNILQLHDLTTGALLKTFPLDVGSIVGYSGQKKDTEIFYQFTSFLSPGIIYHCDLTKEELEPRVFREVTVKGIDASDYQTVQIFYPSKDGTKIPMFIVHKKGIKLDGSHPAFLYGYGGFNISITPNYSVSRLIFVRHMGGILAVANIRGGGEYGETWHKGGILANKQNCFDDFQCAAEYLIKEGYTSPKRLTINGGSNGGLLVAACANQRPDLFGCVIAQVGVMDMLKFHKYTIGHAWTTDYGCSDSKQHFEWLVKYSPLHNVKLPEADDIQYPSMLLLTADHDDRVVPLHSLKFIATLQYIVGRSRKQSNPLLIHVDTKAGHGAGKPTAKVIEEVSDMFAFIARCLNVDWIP

[1] = system: SCOP-induced amnestic rat; experiment: Step-down type passive avoidance test in scopolamine-induced amnestic rats; format: in vivo, rat (Wister strain); details: for Acquisition trial: Step-down latency / Acquisition trial: Number of step-down / Acquisition trial: Total time for the test: scopolamine after learning; for Retention trial: Step-down latency after 24 hours / Retention trial: Step-down latency after 48 hours: scopolamine 3.0 mg/kg i.p. after learning
Description: (2) A step-down type passive avoidance test
This test was carried out by using the undermentioned apparatus (A) and test animal (B) according to the undermentioned testing method (C).
(A) Test chamber for passive avoidance response of rats
A test chamber of 200(w)×200(1) mm in area was made of transparent acrylic resin plates for observation of the inside and was provided on one side thereof with an electrically insulated platform of 150(w)×200(1)×40(h) in size and on the bottom with a grid floor made of stainless steel which was equipped with a foot-shock generator/scrumbler (HASG-101/S, Medical Agent, Inc.) capable of sending electric current to the grid floor for giving a test animal electric foot shock.
5-Weeks-old male rats of Wister strain weighing 100-145 g (Japan Clea Co., Ltd.) were used as test animals.
The passive avoidance test consists of two steps; an acquisition trial and a retention trial. […] As control, only saline was administered intraperitoneally to a group of the rats. In the acquisition trial, the rat was placed on the platform in the test chamber and, when the rat stepped down on the floor, the electric current of 4 mA was immediately sent to the grid continuously until the rat went up on the platform. At the time the rat having gone up on the platform stayed there for more than 20 seconds, the rat was regarded to have learned the situation and taken out of the test chamber. Repeating this test with another rat under the same condition, the rats learned the situation were collected as passing the test for the acquisition trial. A total time of measurement in the acquisition trial was limited to 300 seconds as maximum, and the time elapsing until the rat stepped down to the grid floor (step-down latency, SDL), the total time elapsing until the rat learned the situation and the times of step-down were measured. […] Immediately after the acquisition trial, scopolamine hydrobromide (SCOP) dissolved in saline was administered intraperitoneally in a dose of 3.0 mg/kg of body weight to the rat to prepare a SCOP-induced amnestic rat. As control, only saline was administered intraperitoneally to a group of the rats. The retention trial was carried out by putting the rat on the platform of the test chamber after the lapse of 24 and 48 hours from the acquisition trial, and the time elapsing until the rat went down to the floor (SDL) was measured. A statistical treatment of the data obtained was made according to the Student's t-test.

[2] = 2.2 mg/kg i.p. one hour before acquisition trial

SMILES	Inhibitory activity in vitro (in words) (prolyl endopeptidase)	Acquisition trial: Step-down latency [1, 2] [s]	Retention trial: Step-down latency after 24 hours ([1]; 2.2 mg/kg i.p.) [s]	Retention trial: Step-down latency after 48 hours ([1]; 2.2 mg/kg i.p.) [s]	Acquisition trial: Number of step-down ([1]; 2.2 mg/kg i.p.) [times]	Acquisition trial: Total time for the test ([1]; 2.2 mg/kg i.p.) [s]	Retention trial: Step-down latency after 24 hours ([1]; 11.0 mg/kg i.p.) [s]	Retention trial: Step-down latency after 48 hours ([1]; 11.0 mg/kg i.p.) [s]	Acquisition trial: Number of step-down ([1]; 11.0 mg/kg i.p.) [times]	Acquisition trial: Step-down latency ([1]; 11.0 mg/kg i.p.) [s]	Acquisition trial: Total time for the test ([1]; 11.0 mg/kg i.p.) [s]
O=C([C@@H]1CSCN1C(=O)OCc1ccccc1)N1CSC[C@H]1CO [Example 3, N-benzyloxycarbonyl-L-thioprolyl-L-thioprolinol]	not effective in vitro	9.8	238.2	174.0	2.4	67.5					
O=C[C@@H]1CSCN1C(=O)[C@@H]1CSCN1C(=O)OCc1ccccc1 [Example 4, N-benzyloxycarbonyl-L-thioprolyl-L-thioprolinal] (Cbz-[Thz]-[Thz]-aldehyde)		7.6	170.9	176.5	2.0	52.1	245.7	177.0	2.2	8.9	57.1
